Results taken from the supplement of paper PMC10883282.
± gives the standard deviation of the averaged measurements.

Tested on: MES-SA
Experiment: relative viability vs DMSO control (72 h) (fraction); higher = more viable cells
How it was run: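 Percent growth from ATPLite readings, averaged over up to triplicate wells, was used as relative viability. Sarcoma cell lines were seeded into 384-well plates for 80–90% confluence, dosed after 24 h, and kept 72 h at 37 °C, 5% CO2. Data were rescaled to a range where 1 is full and 0 is none.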

SMILES | relative viability (0.00017 µM) | relative viability (0.00051 µM) | relative viability (0.00152 µM) | relative viability (0.00457 µM) | relative viability (0.01372 µM) | relative viability (0.04115 µM) | relative viability (0.1235 µM) | relative viability (0.3704 µM) | relative viability (1.111 µM) | relative viability (3.333 µM) | relative viability (10 µM)
Cc1ccc(F)c(NC(=O)Nc2ccc(-c3cccc4[nH]nc(N)c34)cc2)c1 [Linifanib] | 0.979 ± 0.013 | 0.968 ± 0.02 | 0.942 ± 0.014 | 0.956 ± 0.035 | 0.974 ± 0.01 | 0.971 ± 0.015 | 0.969 ± 0.011 | 0.918 ± 0.033 | 0.935 ± 0.01 | 0.75 ± 0.21 | 0.933 ± 0.014
CNC(=O)c1ccc(-c2cnc3ncc(Cc4ccc5ncccc5c4)n3n2)cc1F [Capmatinib] | 0.93 ± 0.025 | 0.959 ± 0.037 | 0.958 ± 0.028 | 0.953 ± 0.057 | 0.943 ± 0.012 | 0.945 ± 0.036 | 0.982 ± 0.012 | 0.934 ± 0.012 | 0.937 ± 0.055 | 0.867 ± 0.035 | 0.837 ± 0.025
CN1CCC(COc2cnc(-c3cccc(Cn4nc(-c5cccc(C#N)c5)ccc4=O)c3)nc2)CC1 [Tepotinib] | 0.962 ± 0.038 | 0.959 ± 0.0044 | 0.95 ± 0.023 | 0.974 ± 0.033 | 0.955 ± 0.043 | 0.928 ± 0.035 | 0.939 ± 0.028 | 0.9528 ± 0.0065 | 0.94 ± 0.042 | 0.875 ± 0.027 | 0.752 ± 0.024
N#CC[C@H](C1CCCC1)n1cc(-c2ncnc3[nH]ccc23)cn1 [Ruxolitinib] | 1.02 ± 0.024 | 1.01 ± 0.024 | 0.997 ± 0.015 | 0.962 ± 0.058 | 0.992 ± 0.03 | 0.979 ± 0.058 | 0.957 ± 0.042 | 0.981 ± 0.02 | 0.84 ± 0.04 | 0.825 ± 0.042 | 0.679 ± 0.035
CC(C)(C)c1cc(NC(=O)Nc2ccc(-c3cn4c(n3)sc3cc(OCCN5CCOCC5)ccc34)cc2)no1 [Quizartinib] | 0.944 ± 0.012 | 0.974 ± 0.019 | 0.94 ± 0.015 | 0.935 ± 0.046 | 0.937 ± 0.023 | 0.931 ± 0.016 | 0.953 ± 0.025 | 0.933 ± 0.031 | 0.823 ± 0.017 | 0.602 ± 0.041 | 0.577 ± 0.025
COc1c(OCCCN2CCOCC2)ccc2c1N=C(NC(=O)c1cnc(N)nc1)N1CCN=C21 [Copanlisib] | 0.966 ± 0.029 | 0.926 ± 0.031 | 0.9 ± 0.019 | 0.633 ± 0.029 | 0.502 ± 0.016 | 0.374 ± 0.0084 | 0.273 ± 0.0095 | 0.164 ± 0.0066 | 0.147 ± 0.0029 | 0.18 ± 0.0026 | 0.159 ± 0.0078
Cc1ccc(NC(=O)c2ccc(CN3CCN(C)CC3)cc2)cc1Nc1nc(-c2cccnc2)cs1 [Masitinib] | 0.978 ± 0.013 | 0.969 ± 0.014 | 0.955 ± 0.021 | 0.96 ± 0.028 | 0.952 ± 0.011 | 0.956 ± 0.015 | 0.912 ± 0.025 | 0.905 ± 0.026 | 0.735 ± 0.029 | 0.445 ± 0.017 | 0.11 ± 0.011
Cn1cc(-c2cc3c(N4CCN(c5ncc([C@@](C)(N)c6ccc(F)cc6)cn5)CC4)ncnn3c2)cn1 [Avapritinib] | 0.882 ± 0.024 | 0.867 ± 0.036 | 0.8778 ± 0.0081 | 0.884 ± 0.016 | 0.91 ± 0.016 | 0.902 ± 0.038 | 0.898 ± 0.02 | 0.884 ± 0.018 | 0.795 ± 0.014 | 0.624 ± 0.02 | 0.51 ± 0.011
O=C(Cc1ccc(-c2ccc(OCCN3CCOCC3)cc2)cn1)NCc1ccccc1 [KX2-391] | 0.988 ± 0.041 | 0.976 ± 0.018 | 0.946 ± 0.018 | 0.949 ± 0.026 | 0.9439 ± 0.0022 | 0.448 ± 0.042 | 0.2711 ± 0.0024 | 0.179 ± 0.0046 | 0.143 ± 0.0031 | 0.133 ± 0.004 | 0.13 ± 0.0027
CO[C@H]1C[C@@H]2CC[C@@H](C)[C@@](O)(O2)C(=O)C(=O)N2CCCC[C@H]2C(=O)O[C@H]([C@H](C)C[C@@H]2CC[C@@H](OP(C)(C)=O)[C@H](OC)C2)CC(=O)[C@H](C)/C=C(\C)[C@@H](O)[C@@H](OC)C(=O)[C@H](C)C[C@H](C)/C=C/C=C/C=C/1C [Ridaforolimus] | 0.888 ± 0.04 | 0.827 ± 0.055 | 0.599 ± 0.0079 | 0.489 ± 0.015 | 0.423 ± 0.021 | 0.403 ± 0.024 | 0.4 ± 0.0088 | 0.368 ± 0.027 | 0.376 ± 0.0059 | 0.367 ± 0.023 | 0.374 ± 0.024
CCc1cc2c(cc1N1CCC(N3CCOCC3)CC1)C(C)(C)c1[nH]c3cc(C#N)ccc3c1C2=O [Alectinib] | 0.896 ± 0.018 | 0.91 ± 0.026 | 0.895 ± 0.045 | 0.893 ± 0.036 | 0.889 ± 0.068 | 0.944 ± 0.035 | 0.953 ± 0.035 | 0.9459 ± 0.0094 | 0.942 ± 0.018 | 0.968 ± 0.049 | 0.959 ± 0.035
C[C@@H](c1ccc2nccn2c1)n1nnc2ncc(-c3cnn(C)c3)nc21 [Volitinib] | 0.91 ± 0.021 | 0.92 ± 0.053 | 0.97 ± 0.022 | 0.927 ± 0.043 | 0.959 ± 0.019 | 0.957 ± 0.026 | 0.929 ± 0.039 | 0.949 ± 0.029 | 0.926 ± 0.018 | 0.942 ± 0.018 | 0.902 ± 0.035
CC1(C)CNc2cc(NC(=O)c3cccnc3NCc3ccncc3)ccc21 [Motesanib] | 0.93 ± 0.044 | 0.946 ± 0.034 | 0.962 ± 0.01 | 0.937 ± 0.023 | 0.949 ± 0.061 | 0.947 ± 0.047 | 0.961 ± 0.02 | 1 ± 0.044 | 0.96 ± 0.035 | 0.948 ± 0.013 | 0.849 ± 0.041
CN1CCN(c2ccc3nc(-c4c(N)c5c(F)cccc5[nH]c4=O)[nH]c3c2)CC1 [Dovitinib] | 0.945 ± 0.032 | 0.974 ± 0.029 | 0.95 ± 0.021 | 0.95 ± 0.017 | 0.9483 ± 0.0052 | 0.9283 ± 0.009 | 0.921 ± 0.04 | 0.836 ± 0.041 | 0.4858 ± 0.0047 | 0.191 ± 0.012 | 0.0897 ± 0.0022
CNC(=O)c1cc(Oc2ccc(NC(=O)Nc3ccc(Cl)c(C(F)(F)F)c3)c(F)c2)ccn1 [Regorafenib] | 0.973 ± 0.026 | 0.9876 ± 0.0026 | 0.972 ± 0.037 | 0.955 ± 0.036 | 0.968 ± 0.022 | 0.96 ± 0.03 | 0.997 ± 0.067 | 0.965 ± 0.045 | 0.923 ± 0.064 | 0.735 ± 0.038 | 0.246 ± 0.01
Cc1nc(NC(=O)N2CCC[C@H]2C(N)=O)sc1-c1ccnc(C(C)(C)C(F)(F)F)c1 [Alpelisib] | 0.884 ± 0.046 | 0.909 ± 0.053 | 0.901 ± 0.01 | 0.88 ± 0.052 | 0.879 ± 0.033 | 0.843 ± 0.034 | 0.774 ± 0.014 | 0.64 ± 0.016 | 0.526 ± 0.019 | 0.43 ± 0.015 | 0.323 ± 0.0056
CCN1CCN(Cc2ccc(Nc3ncc(F)c(-c4cc(F)c5nc(C)n(C(C)C)c5c4)n3)nc2)CC1 [Abemaciclib] | 0.883 ± 0.026 | 0.901 ± 0.035 | 0.878 ± 0.02 | 0.873 ± 0.031 | 0.876 ± 0.05 | 0.84 ± 0.046 | 0.736 ± 0.037 | 0.61 ± 0.031 | 0.435 ± 0.012 | 0.361 ± 0.0072 | 0.348 ± 0.023
CC[C@H](Nc1ncnc2[nH]cnc12)c1nc2cccc(F)c2c(=O)n1-c1ccccc1 [Idelalisib] | 1.01 ± 0.021 | 1 ± 0.034 | 0.993 ± 0.03 | 0.964 ± 0.015 | 0.971 ± 0.038 | 0.972 ± 0.036 | 0.986 ± 0.022 | 0.937 ± 0.016 | 0.889 ± 0.031 | 0.867 ± 0.029 | 0.711 ± 0.023
C=CC(=O)N1CCC[C@@H](n2nc(-c3ccc(Oc4ccccc4)cc3)c3c(N)ncnc32)C1 [Ibrutinib] | 1 ± 0.018 | 0.977 ± 0.021 | 0.955 ± 0.041 | 0.947 ± 0.029 | 0.966 ± 0.026 | 0.964 ± 0.026 | 0.931 ± 0.03 | 0.864 ± 0.011 | 0.866 ± 0.045 | 0.88 ± 0.022 | 0.6991 ± 0.0047
